Test: solvent given as SMILES

CCOC(=O)c1sc(-c2ccc(-c3cc(C4CC4)c(C(=O)OCC)s3)s2)cc1C1CC1
emission maximum (in ClCCl): 448 nm

CCCCCCOc1cc(/C=C/c2cc(OCCCCCC)c(/C=C/c3cc(OCCCCCC)c(/C=C4\C(=O)c5ccccc5C4=C(C#N)C#N)cc3OCCCCCC)cc2OCCCCCC)c(OCCCCCC)cc1/C=C1\C(=O)c2ccccc2C1=C(C#N)C#N
emission maximum (in ClCCl): 765 nm

Cc1ccc(-c2cc(-c3ccccc3)c(C#N)c(=S)[nH]2)cc1
emission maximum (in C1CCCCC1): 504 nm
emission maximum (in C1COCCO1): 506 nm
emission maximum (in CC#N): 488 nm
emission maximum (in CCCCO): 503 nm
emission maximum (in CCCO): 490 nm
emission maximum (in CCO): 462 nm
emission maximum (in CCOC(C)=O): 522 nm
emission maximum (in CCOCC): 524 nm
emission maximum (in CN(C)C=O): 502 nm
emission maximum (in ClC(Cl)(Cl)Cl): 508 nm

CCOC(=O)c1cc(C(=O)OCC)c2c(C)ccc(OC(=O)OC(C)(C)C)c2n1
emission maximum (in CCO): 505 nm

Cc1c(C)c(-c2cccnc2)c(C)c(C)c1B(c1c(C)c(C)c(-c2cccnc2)c(C)c1C)c1c(C)c(C)c(-c2cccnc2)c(C)c1C
emission maximum (in ClCCl): 403 nm

N[C@@H](Cn1nnc2cc(-c3ccc4ccccc4c3)ccc21)C(=O)O
emission maximum (in CO): 417 nm

CN(C)c1ccc(-c2c(/C=C3/C=Cc4ccccc4N3Cc3ccccc3)c(=O)c2=O)cc1
emission maximum (in C1CCCCC1): 427 nm
emission maximum (in Cc1ccccc1): 435 nm
emission maximum (in ClCCl): 586 nm

Cc1ccccc1-c1c2ccc(=[N+]3CCOCC3)cc-2oc2cc(N3CCOCC3)ccc12
emission maximum (in CCO): 582 nm
emission maximum (in ClCCl): 575 nm

COc1ccccc1C1=[N+]2C(=Cc3c4cc5ccccc5cc4c(-c4ccccc4OC)n3[B-]2(F)F)c2cc3ccccc3cc21
emission maximum (in C1CCOC1): 760 nm

CCCCOc1cc2ccccc2c2c1oc1cc3ccccc3cc12
emission maximum (in C1CCOC1): 381 nm

Cc1cccc2cc(C)c3c4ccccc4[nH]c3c12
emission maximum (in ClCCl): 364 nm

O=C1c2ccccc2-c2ccc(N3CCN(c4ccccc4)CC3)c3cccc1c23
emission maximum (in C1CCCCC1): 529 nm
emission maximum (in C1CCOC1): 583 nm
emission maximum (in C1COCCO1): 578 nm
emission maximum (in CC1COC(=O)O1): 614 nm
emission maximum (in CC#N): 603 nm
emission maximum (in CC(C)=O): 601 nm
emission maximum (in CCCCCCCCO): 590 nm
emission maximum (in CCCCCO): 586 nm
emission maximum (in CCCCO): 581 nm
emission maximum (in CCCO): 586 nm
emission maximum (in CCO): 589 nm
emission maximum (in CCOC(C)=O): 587 nm
emission maximum (in CN(C)C=O): 602 nm
emission maximum (in CO): 577 nm
emission maximum (in CS(C)=O): 613 nm
emission maximum (in Cc1ccccc1): 562 nm
emission maximum (in ClC(Cl)Cl): 591 nm

CCOC(=O)c1cc(C(=O)OCC)c2cc(N(CC)CC)ccc2n1
emission maximum (in CCO): 561 nm

CN(C)c1ccc2c(c1)C(=O)c1ccccc1-2
emission maximum (in C1CCCCC1): 600 nm
emission maximum (in c1ccccc1): 644 nm

COc1cc2c(cc1-c1ccc(C)cc1)Cc1c3c(c4c(c1-2)-c1cc(OC)c(-c2ccc(C)cc2)cc1C4)C(=O)N(CCC(C)C)C3=O
emission maximum (in C1CCOC1): 476 nm

O=P1(c2ccccc2)C(c2ccc(C3=Cc4ccccc4P3(=O)c3ccccc3)cc2)=Cc2ccccc21 (stereo unspecified)
emission maximum (in C1CCOC1): 431 nm

O=C(O)C1=C(C(=O)O)C2=C[C@H]3c4ccccc4[C@]2(S1)c1ccccc13
emission maximum (in ClCCl): 503 nm

c1ccc2[nH]c(-c3ccc(-c4ccc(-c5ccc(-c6nc7ccccc7[nH]6)cc5)cc4)cc3)nc2c1
emission maximum (in CN(C)C=O): 409 nm

c1ccc(-c2c3c(c(-c4ccccc4)c4c2-c2ccccc2C4)-c2ccccc2C3)cc1
emission maximum (in C1CCCCC1): 375 nm

CN(C)c1ccc(C2=CC3=C(c4ccc(C=O)cc4)[C@H]4c5ccccc5[C@]3(S2)c2ccccc24)cc1
emission maximum (in ClCCl): 616 nm

O=C(c1ccccc1)c1cc2ccc1CCc1ccc(c(-c3ccc(N(c4ccccc4)c4ccccc4)cc3)c1)CC2
emission maximum (in Cc1ccccc1): 455 nm
emission maximum (in c1cc(-n2c3ccccc3c3ccccc32)cc(-n2c3ccccc3c3ccccc32)c1): 468.87 nm

Cc1cc(=O)oc2cc3c4ccc(C(C)(C)C)cc4c4cc(C(C)(C)C)ccc4c3cc12
emission maximum (in ClC(Cl)Cl): 423 nm

CN(C)c1ccc(/C=C/c2ncnc3ccccc23)cc1
emission maximum (in C1CCCCC1): 465 nm
emission maximum (in C1CCOC1): 537 nm
emission maximum (in CC#N): 572 nm
emission maximum (in CS(C)=O): 585 nm
emission maximum (in ClCCl): 548 nm

CN(C)c1ccc(C#Cc2ccc(C#N)cc2)cc1
emission maximum (in C1CCCCC1): 383 nm
emission maximum (in C1CCOC1): 505 nm
emission maximum (in C1COCCO1): 446.01 nm
emission maximum (in CC1CCCO1): 468.01 nm
emission maximum (in CC#N): 571 nm
emission maximum (in CC(C)=O): 543.01 nm
emission maximum (in CC(C)CC(C)(C)C): 380 nm
emission maximum (in CC(C)O): 510 nm
emission maximum (in CCCCCCCCCCCCCCCC): 385 nm
emission maximum (in CCCCCCCCCCCCCCCCCl): 423.6 nm
emission maximum (in CCOC(C)=O): 482 nm
emission maximum (in CCOCC): 453 nm
emission maximum (in CN(C)C=O): 566 nm
emission maximum (in CO): 547.02 nm
emission maximum (in CS(C)=O): 573 nm
emission maximum (in Cc1ccccc1): 427 nm

CC1(C)c2ccccc2N(c2ccc(-c3cnc(C#N)nc3)cc2)c2ccccc21
emission maximum (in Cc1ccccc1): 524 nm
emission maximum (in N#Cc1ccc2c(c1)c1ccccc1n2-c1cccc(-n2c3ccccc3c3ccccc32)c1): 526 nm

N#Cc1coc2ccccc2c1=O
emission maximum (in C1CCOC1): 373 nm
emission maximum (in C1COCCO1): 402 nm
emission maximum (in CC#N): 495 nm
emission maximum (in CC(C)O): 411 nm
emission maximum (in CCCCO): 500 nm
emission maximum (in CCCO): 440 nm
emission maximum (in CCOC(C)=O): 495 nm
emission maximum (in CN(C)C=O): 494 nm
emission maximum (in CO): 415 nm
emission maximum (in CS(C)=O): 490 nm
emission maximum (in ClC(Cl)Cl): 438 nm
emission maximum (in O): 396 nm

COc1ccc(C2=C(c3ccc(F)cc3)C(c3ccccc3)=[N+]3C2=Nc2c(-c4ccc(OC)cc4)c(-c4ccc(F)cc4)c(-c4ccccc4)n2[B-]3(F)F)cc1
emission maximum (in Cc1ccccc1): 692 nm

N#Cc1c(C#N)c2cc(Cl)c(Cl)cc2c2cc(Cl)c(Cl)cc12
emission maximum (in ClC(Cl)Cl): 412 nm

COc1ccc2cc(/C=C/C3=C4CCc5ccccc5C4=[O+][B-](F)(F)O3)ccc2c1
emission maximum (in ClCCl): 564 nm

COc1ccc(-c2c3nc(cc4ccc([nH]4)c(-c4ccc(OC)c(OCCCC(=O)O)c4)c4nc(cc5ccc2[nH]5)CC4)CC3)cc1OCCCC(=O)O
emission maximum (in CS(C)=O): 738 nm

COc1cc(OC)cc(C2=C3C(C)=C(I)C(/C=C/c4c[nH]c5ccc([N+](=O)[O-])cc45)=[N+]3[B-](F)(F)n3c(/C=C/c4c[nH]c5ccc([N+](=O)[O-])cc45)c(I)c(C)c32)c1
emission maximum (in C1CCOC1): 720 nm
emission maximum (in CS(C)=O): 748 nm
emission maximum (in ClCCl): 721 nm

CC1=CC(C)=[N+]2C1=C(c1ccc(Br)cc1)c1c(C)cc(/C=C/c3ccc[nH]3)n1[B-]2(F)F
emission maximum (in ClCCl): 613 nm

c1ccc2c(c1)OP1(=NP3(=NP(Oc4ccc5ccc6cccc7ccc4c5c67)(Oc4ccc5ccc6cccc7ccc4c5c67)=N1)Oc1ccccc1-c1ccccc1O3)Oc1ccccc1-2
emission maximum (in ClCCl): 463 nm

CCCCCCc1ccc2c3c(ccc2c1)O[B-](F)(F)[N+](c1ccc([N+]2=Cc4c(ccc5cc(CCCCCC)ccc45)O[B-]2(F)F)cc1)=C3
emission maximum (in C1CCOC1): 505 nm
emission maximum (in CC#N): 502 nm
emission maximum (in Cc1ccccc1): 508 nm
emission maximum (in ClCCl): 507 nm

COc1ccc(/C=C/C=C/C2=NC3C(=O)NC(N)=NC3N2[C@H]2C[C@H](O)[C@@H](CO)O2)cc1 (stereo partly specified)
emission maximum (in C1COCCO1): 429 nm
emission maximum (in CC#N): 441 nm
emission maximum (in CO): 438 nm

Cn1c2ccc(S(=O)(=O)O)cc2c(=O)c2cc(S(=O)(=O)O)ccc21
emission maximum (in CS(C)=O): 424 nm
emission maximum (in O): 433 nm

Cn1c(=O)c(/N=N/c2cc(S(=O)(=O)O)ccc2C(=O)O)c(O)c2ccccc21
emission maximum (in C1CCOC1): 523 nm
emission maximum (in CC(C)=O): 538 nm
emission maximum (in CCOC(C)=O): 528 nm
emission maximum (in CO): 532 nm
emission maximum (in CS(C)=O): 486 nm
emission maximum (in Cc1ccccc1): 509 nm
emission maximum (in ClCCl): 516 nm
emission maximum (in O): 553 nm

c1ccc(-c2nc(-c3ccccc3)nc(-n3c4ccccc4c4cc(-n5c6ccccc6c6ccccc65)ccc43)n2)cc1
emission maximum (in C1CCOC1): 535.43 nm
emission maximum (in Cc1ccccc1): 502.82 nm

Cn1ccc(=O)n(C)c1=O
emission maximum (in CC#N): 308 nm

Cc1cc(C)c(B2c3cc(C)ccc3N3c4ccc(C)cc4B(c4c(C)cc(C)cc4C)c4cc(C)cc2c43)c(C)c1
emission maximum (in ClCCl): 484 nm

Cc1ccc2c(c1)C(C)(C)c1cc(C)ccc1N2c1ccc2c(c1)C(C)(C)c1cc(N3c4ccc(C)cc4C(C)(C)c4cc(C)ccc43)ccc1S2(=O)=O
emission maximum (in Cc1ccccc1): 470.07 nm
emission maximum (in ClCCl): 538 nm

CN(C)c1ccc(N2c3sc4ccccc4c3Sc3sc4ccccc4c32)cc1
emission maximum (in ClCCl): 424 nm

Cc1ccc2[nH]c(-c3ccc(-c4ccc(-c5ccc(-c6nc7cc(C)ccc7[nH]6)cc5)c(C)c4)cc3)nc2c1
emission maximum (in CN(C)C=O): 408 nm

COCCC1=Cc2nc1ccc1[nH]c(cc1CCOC)c1nc(c(OC(C)=O)cc3[nH]c2cc3CCOC)C(CCOC)=C1
emission maximum (in Cc1ccccc1): 652 nm

CCCCCCCCOc1ccc(-c2c3c4n(c(-c5ccc(OCCCCCCCC)cc5)c3c3n2[B-](F)(F)[n+]2ccccc2N=3)[B-](F)(F)[n+]2ccccc2N=4)cc1
emission maximum (in ClC(Cl)Cl): 661 nm

CC(=O)c1c2c(cc3ccc(N(C)C)cc13)CCC2
emission maximum (in C1CCCCC1): 466 nm
emission maximum (in C1CCOC1): 497 nm
emission maximum (in C1COCCO1): 495 nm
emission maximum (in CC#N): 529 nm
emission maximum (in CCO): 578 nm
emission maximum (in CS(C)=O): 536 nm
emission maximum (in Cc1ccccc1): 490 nm
emission maximum (in ClC(Cl)Cl): 516 nm
emission maximum (in ClCCl): 510 nm

Cc1cc2cc3ccccc3cc2cn1
emission maximum (in CCO): 437.06 nm

CC[n+]1c(-c2ccccc2)c2cc(N)ccc2c2ccc(N)cc21
emission maximum (in O): 606 nm

CC(C)(C)c1ccc2c(c1)c1ncncc1c1c3ccccc3sc21
emission maximum (in ClCCl): 414 nm

COc1ccc(-c2csc(/C(C#N)=C/c3ccc(C#N)cc3)n2)cc1
emission maximum (in CC#N): 561 nm
emission maximum (in CCO): 555 nm
emission maximum (in CN(C)C=O): 570 nm
emission maximum (in Cc1ccccc1): 519 nm
emission maximum (in ClCCl): 554 nm

Cc1ccc(-c2cc(/C=C/c3ccc(N(c4ccccc4)c4ccccc4)cc3)c(C#N)c(N3CCCCC3)c2)cc1
emission maximum (in CS(C)=O): 523 nm
